Among the data in ChEMBL document CHEMBL1132204, “Design and synthesis of phosphinamide-based hydroxamic acids as inhibitors of matrix metalloproteinases” (J Med Chem, 1999) are IC50 values, retold here.

Assay [1] has as its target Stromelysin-1 (Homo sapiens, UniProt P08254). Put plainly: Inhibition of human matrix metalloprotease-3.
In assay [2] the target is T1, Interstitial collagenase (Homo sapiens, UniProt P03956).
T1 sequence (P03956 whole entry): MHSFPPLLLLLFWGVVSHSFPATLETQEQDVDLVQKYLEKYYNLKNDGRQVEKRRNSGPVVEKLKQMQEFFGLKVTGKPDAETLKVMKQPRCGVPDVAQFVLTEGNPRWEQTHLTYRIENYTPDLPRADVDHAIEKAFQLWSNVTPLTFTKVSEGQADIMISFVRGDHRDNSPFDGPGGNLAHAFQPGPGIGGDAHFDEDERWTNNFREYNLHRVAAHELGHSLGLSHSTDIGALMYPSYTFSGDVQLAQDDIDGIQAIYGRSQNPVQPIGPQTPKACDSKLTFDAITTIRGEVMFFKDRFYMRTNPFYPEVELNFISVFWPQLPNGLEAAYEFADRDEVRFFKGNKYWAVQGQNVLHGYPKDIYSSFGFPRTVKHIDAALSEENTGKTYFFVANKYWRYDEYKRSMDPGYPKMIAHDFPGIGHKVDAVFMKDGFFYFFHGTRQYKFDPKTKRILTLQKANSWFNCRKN
The experiment in a line: Inhibition of human matrix metalloprotease 1.

The target of assay [3] is T2, Matrilysin (Homo sapiens, UniProt P09237).
T2 sequence (P09237 whole entry): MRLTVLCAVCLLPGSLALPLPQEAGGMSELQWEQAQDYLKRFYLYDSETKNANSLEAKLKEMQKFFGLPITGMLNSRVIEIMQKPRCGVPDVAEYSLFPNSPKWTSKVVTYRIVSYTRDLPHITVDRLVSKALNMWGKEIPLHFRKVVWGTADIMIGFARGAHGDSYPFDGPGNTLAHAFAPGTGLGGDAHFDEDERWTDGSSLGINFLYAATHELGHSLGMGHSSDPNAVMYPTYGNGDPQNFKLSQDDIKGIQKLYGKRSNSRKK
Put plainly: Inhibition of human matrix metalloprotease 7.

Assay [4] deals with Matrix metalloproteinase-9 (Homo sapiens, UniProt P14780). Put plainly: Inhibition of human matrix metalloprotease 9.
Sequence of Matrix metalloproteinase-9 (P14780 whole entry): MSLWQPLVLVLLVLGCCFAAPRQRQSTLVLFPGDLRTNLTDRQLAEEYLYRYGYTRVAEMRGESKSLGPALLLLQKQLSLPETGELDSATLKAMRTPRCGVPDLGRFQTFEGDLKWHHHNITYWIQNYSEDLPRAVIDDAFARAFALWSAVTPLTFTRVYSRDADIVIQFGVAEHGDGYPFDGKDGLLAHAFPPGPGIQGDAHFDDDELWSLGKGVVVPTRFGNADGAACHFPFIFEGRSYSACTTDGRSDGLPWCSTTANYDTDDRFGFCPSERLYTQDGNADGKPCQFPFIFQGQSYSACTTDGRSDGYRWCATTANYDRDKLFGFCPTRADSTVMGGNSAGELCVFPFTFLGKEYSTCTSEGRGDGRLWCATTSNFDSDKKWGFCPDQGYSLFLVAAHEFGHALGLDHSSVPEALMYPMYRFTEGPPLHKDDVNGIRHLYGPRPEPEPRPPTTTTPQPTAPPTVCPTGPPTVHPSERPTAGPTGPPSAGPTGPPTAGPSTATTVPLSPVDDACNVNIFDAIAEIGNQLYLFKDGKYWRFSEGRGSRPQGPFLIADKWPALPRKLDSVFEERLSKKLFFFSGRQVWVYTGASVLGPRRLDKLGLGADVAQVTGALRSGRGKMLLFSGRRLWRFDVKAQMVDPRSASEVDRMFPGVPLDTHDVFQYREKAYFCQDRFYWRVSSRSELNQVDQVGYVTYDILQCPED
Assay [5] addresses Neutrophil collagenase (Homo sapiens, UniProt P22894). Put plainly: Inhibition of human Matrix metalloprotease-8.
In assay [6] the target is Collagenase 3 (Rattus norvegicus, UniProt P23097).
Description: Inhibition of rat matrix metalloprotease 13
Assay [7] has as its target 72 kDa type IV collagenase (Homo sapiens, UniProt P08253). The experiment in a line: Inhibition of human matrix metalloprotease 2.

Sequence of Stromelysin-1 (P08254 whole entry): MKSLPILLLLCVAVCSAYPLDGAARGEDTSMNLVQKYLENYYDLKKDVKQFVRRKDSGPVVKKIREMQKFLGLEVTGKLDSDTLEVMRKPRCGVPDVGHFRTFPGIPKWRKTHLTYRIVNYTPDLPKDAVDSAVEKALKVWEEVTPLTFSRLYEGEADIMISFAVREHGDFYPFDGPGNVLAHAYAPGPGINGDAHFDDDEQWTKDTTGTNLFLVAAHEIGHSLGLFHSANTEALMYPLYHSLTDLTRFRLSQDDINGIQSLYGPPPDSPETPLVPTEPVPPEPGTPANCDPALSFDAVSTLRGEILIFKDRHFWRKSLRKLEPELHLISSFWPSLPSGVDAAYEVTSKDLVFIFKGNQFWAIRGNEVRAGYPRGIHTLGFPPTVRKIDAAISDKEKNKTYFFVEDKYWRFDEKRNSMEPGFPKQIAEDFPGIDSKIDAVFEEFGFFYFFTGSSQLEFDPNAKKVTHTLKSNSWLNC
Sequence of Neutrophil collagenase (P22894 whole entry): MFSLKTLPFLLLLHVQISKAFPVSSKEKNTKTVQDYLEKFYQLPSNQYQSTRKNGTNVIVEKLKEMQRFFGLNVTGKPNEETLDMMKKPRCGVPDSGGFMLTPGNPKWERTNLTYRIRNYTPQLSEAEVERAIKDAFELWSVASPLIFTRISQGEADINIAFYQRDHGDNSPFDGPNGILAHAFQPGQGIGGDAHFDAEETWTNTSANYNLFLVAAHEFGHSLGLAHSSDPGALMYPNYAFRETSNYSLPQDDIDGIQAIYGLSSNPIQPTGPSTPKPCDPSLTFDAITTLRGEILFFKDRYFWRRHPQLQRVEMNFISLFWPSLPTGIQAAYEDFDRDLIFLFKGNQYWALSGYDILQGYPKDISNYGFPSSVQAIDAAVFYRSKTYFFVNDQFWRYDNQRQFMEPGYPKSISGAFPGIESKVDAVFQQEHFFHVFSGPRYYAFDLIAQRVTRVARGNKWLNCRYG
Sequence of 72 kDa type IV collagenase (P08253 whole entry): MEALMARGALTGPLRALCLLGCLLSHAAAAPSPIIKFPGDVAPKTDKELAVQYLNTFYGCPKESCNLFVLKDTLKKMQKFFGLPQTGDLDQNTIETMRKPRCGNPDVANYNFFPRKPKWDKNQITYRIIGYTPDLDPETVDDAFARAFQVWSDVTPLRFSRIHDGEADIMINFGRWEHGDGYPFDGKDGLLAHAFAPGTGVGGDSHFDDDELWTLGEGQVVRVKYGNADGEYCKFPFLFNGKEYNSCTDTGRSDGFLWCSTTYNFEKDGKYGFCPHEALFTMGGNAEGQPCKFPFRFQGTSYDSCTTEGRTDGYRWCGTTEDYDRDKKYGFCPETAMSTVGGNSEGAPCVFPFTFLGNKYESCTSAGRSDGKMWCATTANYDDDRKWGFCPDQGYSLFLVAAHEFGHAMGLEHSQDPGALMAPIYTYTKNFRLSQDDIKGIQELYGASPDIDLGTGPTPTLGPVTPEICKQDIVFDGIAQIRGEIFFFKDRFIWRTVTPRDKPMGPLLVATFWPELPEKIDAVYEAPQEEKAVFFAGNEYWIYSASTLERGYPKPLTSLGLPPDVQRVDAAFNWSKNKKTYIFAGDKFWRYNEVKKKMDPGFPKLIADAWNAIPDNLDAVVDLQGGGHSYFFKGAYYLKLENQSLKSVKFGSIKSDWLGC

`CC(C)C[C@@H](N[P@](C)(=O)c1ccccc1)C(=O)NO`: the concentration for half-maximal inhibition (IC50) was 2550 nM in assay [1] and 2510 nM in assay [2].

As for `CC(C)C[C@H](C(=O)NO)N(Cc1ccccc1)[P@@](C)(=O)c1ccccc1`, the IC50 in assay [1] turned out to be 9170 nM; in assay [2], 7120 nM.

With `CCP(=O)(c1ccccc1)N(Cc1ccccc1)[C@H](C)C(=O)NO` (stereo partly specified), the figures for the half-maximal inhibitory concentration (IC50) in assay [1] and in assay [2] were 700 nM and 608 nM, respectively.

Take `C[C@H](C(=O)NO)N(Cc1ccccc1)[P@](C)(=O)c1ccccc1`: the 50% inhibitory concentration (IC50) stood at 1860 nM in assay [3], 67.9 nM in assay [1], 120 nM in assay [2] and 32.5 nM in assay [4].

On to `O=C(CN(CCc1ccccc1)P(=O)(c1ccccc1)c1ccccc1)NO`, for which the half-maximal inhibitory concentration (IC50) is 1750 nM in assay [1] and 854 nM in assay [2].

Take `CC(C)C[C@H](C(=O)NO)N(Cc1ccccc1)[P@](C)(=O)c1ccccc1`: the IC50 in assay [3] worked out at 886 nM; in assay [1], 24.4 nM; in assay [2], 20.5 nM; in assay [5] it was 5.3 nM; in assay [4] it was 20.6 nM; in assay [6], 7.4 nM. It took 13.3 nM to reach half-maximal inhibition in assay [7] (IC50).

In the case of `CC[P@@](=O)(c1ccccc1)N(Cc1ccccc1)[C@H](C)C(=O)NO`, the values for the IC50 in assay [1] and in assay [2] were 49300 nM and 33300 nM, respectively.

`C[P@@](=O)(c1ccccc1)N(CCc1ccccc1)CC(=O)NO`: the IC50 in assay [1] was 700 nM; in assay [2] it was 525 nM.

`CC(C)C[C@H](C(=O)NO)N(Cc1ccccc1)P(C)(C)=O`: the values for the half-maximal inhibitory concentration (IC50) in assay [1] and in assay [2] were 1040 nM and 518 nM, respectively.

With `CCCCCCN([C@H](C)C(=O)NO)[P@](C)(=O)c1ccccc1`, the results for the half-inhibitory concentration (IC50) in assay [1] and in assay [2] were 1600 nM and 1290 nM, respectively.

For the compound `C[C@H](C(=O)NO)N(Cc1ccccc1)P(=O)(c1ccccc1)c1ccccc1`, the IC50 in assay [1] was 10300 nM; in assay [2] it was 6790 nM.

As to `CC(C)C[C@@H](N[P@@](C)(=O)c1ccccc1)C(=O)NO`, the IC50 was 130000 nM in assay [1] and above 100000 nM in assay [2].
